Experimental data reported in PubChem BioAssay AID434997 (The Scripps Research Institute Molecular Screening Center, 2010).
pIC50: −log10 of the molar value.

Target: NADPH oxidase 1 (Homo sapiens) (UniProt Q9Y5S8)
Experiment: NOX1 inhibitors, concentration-response, dose response, cell-based, luminescence, cherry picks 2 (AID 434997)
Conditions: NOX1-expressing cells, ROS luminescence

Chain of NADPH oxidase 1 (Homo sapiens) (Q9Y5S8 whole entry, looked up): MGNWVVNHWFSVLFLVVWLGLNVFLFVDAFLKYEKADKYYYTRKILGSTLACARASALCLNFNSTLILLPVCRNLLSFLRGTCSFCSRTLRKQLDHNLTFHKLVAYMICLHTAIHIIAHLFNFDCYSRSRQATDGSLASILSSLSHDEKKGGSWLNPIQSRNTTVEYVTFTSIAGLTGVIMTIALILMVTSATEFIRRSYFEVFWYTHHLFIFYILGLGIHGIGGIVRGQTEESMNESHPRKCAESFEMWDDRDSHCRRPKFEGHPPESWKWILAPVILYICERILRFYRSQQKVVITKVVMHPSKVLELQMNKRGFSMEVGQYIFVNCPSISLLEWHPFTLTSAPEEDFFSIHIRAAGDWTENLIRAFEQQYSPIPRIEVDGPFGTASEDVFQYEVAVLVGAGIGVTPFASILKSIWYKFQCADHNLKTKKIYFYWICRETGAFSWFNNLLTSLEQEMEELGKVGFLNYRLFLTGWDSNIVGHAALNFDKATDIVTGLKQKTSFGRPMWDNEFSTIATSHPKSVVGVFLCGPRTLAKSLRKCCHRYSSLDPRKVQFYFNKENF

pIC50: 6.49
Structure (SMILES): FC(F)(F)c1ccc2c(c1)Nc1ccccc1S2
